Measured values as given in patent publication US20250017207A1 (priority 2021, published 2025).
Converted amounts (≈) assume the structure as drawn.

Legend:
Assay type in all cases: cell-based
[1] = tested on: Fusarium graminearum; test: microbe, parasite or virus in culture; conditions: 72 h, read-out: EC50 Value
[2] = tested on: Fusarium proliferatum; test: Petri plate test, inhibition of mycelial growth (NY/T 1156.2-2006); conditions: 72 h, mycelial growth on PDA plates, 25° C., three days in darkness
From the text: Certain mixture compositions according to the present invention may show a synergistic effect. This occurs whenever the action of an active ingredient combination is greater than the sum of the actions of the individual components. The combined toxicity of two agents can be evaluated by the Co-Toxicity Coefficient (CTC) according to the Sun-YP method (Yun-Pei, Sun. “Toxicity Index-An Improved Method of Comparing the Relative Toxicity of Insecticides.” Journal of Economic Entomology 1(1950):45-53.). A CTC value of less than 80 indicates an antagonistic effect, a CTC value of 80-120 indicates an additive effect, and a CTC value of greater than or equal to 120 indicates a synergistic effect.
Component A represents standard Al, and component B represents the component to be mixed with the standard Al. • ATI (Measured toxicity index of a mixture)=(Standard Al's EC50/Mixture's EC50)*100 • TTI (Theoretical toxicity index of a mixture)=(TIA*PA+TIB*PB)*100 • TIA (Toxicity index of component A)=the EC50 of component A/the EC50 of component A • PA: Percentage of component A in the mixture • TIB (Toxicity index of component B)=the EC50 of component A/the EC50 of component B • PB: Percentage of component B in the mixture […]

[3] = tested on: Gibberella fujikuroi; test: microbe, parasite or virus in culture; conditions: Fusarium fujikuroi, 72 h, read-out: EC50 Value

| SMILES | EC50 [1] | EC50 [2] | EC50 [3] |
| --- | --- | --- | --- |
| CCOC(=O)/C(C#N)=C(\N)c1ccccc1 [PHM, (Z)-ethyl 2-cyano-3-amino-3-phenylacrylate] | 0.0307 µg/mL (≈ 0.142 µM) | 3.08 µg/mL | 0.197 µg/mL (≈ 0.91 µM) |
| O=C(N[C@@H]1CC[C@@H]1c1ccc(Cl)cc1Cl)c1cccnc1C(F)(F)F [cylcobutrifluram, N-[(1,2 cis)-2-(2,4-dichlorophenyl)cyclobutyl]-2-(trifluoromethyl)pyridine-3-carboxamide] | 0.0222 µg/mL (≈ 0.057 µM) | 0.882 µg/mL | 0.75 µg/mL (≈ 1.93 µM) |
